Reference: US12233060B2, “Inhibitors of Ataxia-Telangiectasia Mutated and Rad3-related protein kinase (ATR) for use in methods of treating cancer” (THE INSTITUTE OF CANCER RESEARCH: ROYAL CANCER HOSPITAL, priority 2016, dated 2025)

Key:
TOV21G xenografts = assay: In vivo efficacy, established TOV21G xenografts; design: species or system mice; details: 60 mg/kg, 4x weekly oral gavage, 28 days; p=0.014 ANOVA
[1] = system: HCT116 ARID1A−/− xenografts; assay: In vivo efficacy, HCT116 ARID1A−/− subcutaneous xenografts; design: species or system mice
Procedure: FIG. 3. In vivo ARID1A/ATR synthetic lethality. A. Schematic of VX-970 therapy experiment in mice bearing established HCT116 ARID1A^+/+ and ARID1A^−/− xenografts. Cells were inoculated subcutaneously into nude mice and tumors allowed to establish for 10 days. Mice were then randomized to treatment regimens of either VX-970 (60 mg/kg, 4× weekly by oral gavage) or vehicle. Mice were then treated for a subsequent 40 days. Tumor volume was monitored twice weekly. B. Relative tumor volume plot from (A) showing efficacy of VX-970 and selectivity for ARID1A^−/− xenografts* p=0.024, ANOVA. C. Schematic of tumor incidence experiment in mice with non-established HCT116 ARID1A^+/+ and ARID1A^−/− xenografts. Mice were inoculated with cells as before, randomized and then treated with VX-970. VX-970 or vehicle treatment was initiated on the day of cell implantation. Tumor volume was monitored twice weekly and overall tumour incidence was assessed 40 days later. D. Bar chart of incidence 40 days after implantation of HCT116 ARID1A^+/+ and ARID1A^−/− cells. Each group contained 15 animals and fractions above bars indicate the number of animals in which a measurable xenograft formed. *p=0.027 Fisher's exact test. E and F. Tumor growth in experiment described in (C). *p=0.015 ANOVA. G. VX-970 dose response curves from TOV21G (ARID1A mutant) and RMG1 (ARID1A wildtype) cells. Cells were exposed to VX-970 for 5 days. […] PARP-1, cleaved PARP-1 (85 kDa fragment) and tubulin were detected by western blot. […] Caspase3/7 activity was assessed using Caspase-Glo and total cellular viability was estimated using CellTitre-Glo. Luminescence ratios for Caspase-Glo (i.e. apoptotic cells) and CellTitre-Glo (ie viable cells) was determined for each dose and normalized to DMSO treated samples. *Student's t-test, p<0.05. […]
In vivo efficacy studies were performed using HCT116 […], HCT116 ARID1A^−/− and TOV21G cells injected subcutaneously in the flank of female CD-1 Nude mice. […] Tumours were measured manually by calliper trice weekly and animals were sacrificed when tumours reached >15 mm in any direction.

[2] = system: HCT116 ARID1A+/+ and ARID1A−/− cells; assay: Cell cycle analysis of synchronized cells (G2/M fraction, FACS); format: cell-based, human; details: double thymidine block, release into VX-970 (500 nM)
Procedure: FIG. 5. ATRi effect on cell cycle progression, chromosomal instability, DNA damage and apoptosis. A. Barchart illustrating G2/M fraction in HCT116 ARID1A^+/+ and ARID1A^−/− cells synchronized in G1/early S phase by double thymidine block and released into fresh media containing DMSO or VX-970 (500 nM). The percentage of cells in G2/M was measured by FACS following PI staining. […] Cells were stained with DAPI. A minimum of 50 anaphases were scored in 3 biological replicate experiments. *p=0.023, Student's t-test. C. Bar chart illustrating frequency of anaphase bridges in TOV21G cells exposed to VX-970 (0.5 uM) or DMSO for 8 hours prior to fixation. Experiment performed as for (B). p=0.006 Student's t-test. D. Mitotic spread images from HCT116 ARID1A^+/+ and ARID1A^−/− cells following exposure to either DMSO or VX-970 (1 uM). Scale bar represents 20 um. E. Bar chart illustrating extent of chromosomal abnormalities in HCT116 ARID1A^+/+ and ARID1A^−/− cells exposed to VX-970 (1 uM). *p<0.05, Student's t-test. […]
Cells were plated at a density of 2×10^5 cells per well of a six-well plate and incubated for 24 hours after which ATRi or 0.1% DMSO was added for the indicated period of time. […] Samples were analyzed on a BD LSR II flow cytometer using BD FACSDiva software (BD Biosciences). […]

[3] = system: HCT116 ARID1A isogenic cells and TOV21G cells; assay: Anaphase bridge analysis; format: cell-based, human; details: 0.5 uM, 8 hours
Procedure: FIG. 5. ATRi effect on cell cycle progression, chromosomal instability, DNA damage and apoptosis. A. Barchart illustrating G2/M fraction in HCT116 ARID1A^+/+ and ARID1A^−/− cells synchronized in G1/early S phase by double thymidine block and released into fresh media containing DMSO or VX-970 (500 nM). The percentage of cells in G2/M was measured by FACS following PI staining. […] Cells were stained with DAPI. A minimum of 50 anaphases were scored in 3 biological replicate experiments. *p=0.023, Student's t-test. C. Bar chart illustrating frequency of anaphase bridges in TOV21G cells exposed to VX-970 (0.5 uM) or DMSO for 8 hours prior to fixation. Experiment performed as for (B). p=0.006 Student's t-test. D. Mitotic spread images from HCT116 ARID1A^+/+ and ARID1A^−/− cells following exposure to either DMSO or VX-970 (1 uM). Scale bar represents 20 um. E. Bar chart illustrating extent of chromosomal abnormalities in HCT116 ARID1A^+/+ and ARID1A^−/− cells exposed to VX-970 (1 uM). *p<0.05, Student's t-test. F. Western blot illustrating γH2AX in HCT116 ARID1A^+/+ and ARID1A^−/− cells exposed to VX-970 (0.5 uM) for the indicated time prior to cell lyses. G. Bar chart illustrating apoptotic fraction in cells exposed to increasing concentrations of VX-970 for 24 hours. Experiment as per FIG. 3I. H. Western blot illustrating PARP cleavage in HCT116 ARID1A^+/+ and ARID1A^−/− cells exposed to VX-970. […]

CNCc1ccc(-c2cc(-c3nc(-c4ccc(S(=O)(=O)C(C)C)cc4)cnc3N)on2)cc1 [VX-970, 5-[4-(Isopropylsulfonyl)phenyl]-3-(3-{4-[(methylamino)methyl]phenyl}-1,2-oxazol-5-yl)-2-pyrazinamine]
growth of established TOV21G tumours vs vehicle (TOV21G xenografts): significantly inhibited the growth
growth of established ARID1A−/− xenografts ([1]; 60 mg/kg, 4x weekly oral gavage, 40 days): significantly inhibited the growth
growth of ARID1A−/− tumours under continued treatment ([1]; non-established xenograft experiment, p=0.015 ANOVA): dramatically slowed the growth
frequency of ARID1A−/− tumour formation ([1]; treatment from day of cell implantation, incidence 40 days later, 15 animals per group): 27%
G2/M delay in ARID1A−/− cells [2]: abrogated the G2/M delay
frequency of anaphase bridges [3]: increased level of anaphase bridges
